Test results published in PubChem BioAssay AID1259408 (Genetic Toxicology Data Bank (GENE-TOX), 2018).
Calls of active or inactive are those of the source. The rule behind the calls is not given here.

Test system: GENE-TOX genotoxicity assays, various organisms and cells
Experiment: GENE-TOX mutagenicity studies
Settings: Evaluation Type: Evaluation A (Pre-1980)

Q: For `COS(C)(=O)=O`, which mutagenic call (Species/Cell Type: Arabidopsis species, Assay Type: Gene mutation, Assay Code: ARM+) is on record?
A: active; positive

Q: What about the mutagenic call (Species/Cell Type: Aspergillus nidulans, Assay Type: Reverse gene mutation, Assay Code: ASR+) of the same molecule?
A: active; positive

Q: And the mutagenic call (Species/Cell Type: Chinese hamster lung (V79) cells, Assay Type: Forward gene mutation at the HPRT or ouabain locus, Assay Code: V79+)?
A: active; positive

Q: And the mutagenic call (Species/Cell Type: Chinese hamster ovary (CHO) cells, Assay Type: Forward gene mutation at the HPRT locus, Assay Code: CHO+D, Dose Response: With dose response)?
A: active; positive

Q: And the mutagenic call (Species/Cell Type: Drosophila melanogaster, Assay Type: Sex-linked recessive lethal gene mutation, Assay Code: SRL+)?
A: active; positive

Q: What about the mutagenic call (Species/Cell Type: Drosophila melanogaster, Sex: Male, Assay Type: Heritable translocation test, chromosome aberrations, Assay Code: DHT+) of the same molecule?
A: active; positive

Q: And the mutagenic call (Species/Cell Type: Escherichia coli WP2, Assay Type: Tryptophan reverse gene mutation, Assay Code: WP2+D, Dose Response: With dose response)?
A: active; positive

Q: What about the mutagenic call (Species/Cell Type: Escherichia coli WP2 UVRA, Assay Type: Tryptophan reverse gene mutation, Assay Code: WPU+D, Dose Response: With dose response) of the same molecule?
A: active; positive

Q: And the mutagenic call (Species/Cell Type: Escherichia coli polA (W3119 vs P3478), Assay Type: Rec-assay, DNA effects (bacterial DNA repair), Assay Code: RE1+)?
A: active; positive

Q: And the mutagenic call (Species/Cell Type: Escherichia coli, Saccharomyces cerevisiae, Neurospora crassa, human lymphoid cells, Assay Type: Forward and reverse gene mutation, lethal mutation, mitotic recombination and gene conversion, chromosome effects, DNA e, Assay Code: HM9+)?
A: active; positive

Q: And the mutagenic call (Species/Cell Type: F1 mouse, Sex: Male, Assay Type: Sperm morphology, Assay Code: SPFT)?
A: no conclusion

Q: What about the mutagenic call (Species/Cell Type: Glycine max (soybean), Assay Type: Gene mutation, Assay Code: GLM+) of the same molecule?
A: active; positive

Q: And the mutagenic call (Species/Cell Type: Hordeum vulgare (barley), Assay Type: Chromosome aberrations, Assay Code: HOC+)?
A: active; positive

Q: And the mutagenic call (Species/Cell Type: Hordeum vulgare (barley), Assay Type: Gene mutation, Assay Code: HOM+D, Dose Response: With dose response)?
A: active; positive

Q: What about the mutagenic call (Species/Cell Type: Human diploid fibroblasts, Assay Type: Unscheduled DNA synthesis (UDS) in vitro, DNA effects, Assay Code: UDH+D, Dose Response: With dose response) of the same molecule?
A: active; positive

Q: And the mutagenic call (Species/Cell Type: Human lymphocytes or leukocytes, Assay Type: Chromosome aberrations in vivo, Assay Code: CY8+)?
A: active; positive

Q: What about the mutagenic call (Species/Cell Type: Human lymphocytes, Assay Type: Micronucleus test in vitro, chromosome aberrations, Assay Code: MN7+) of the same molecule?
A: active; positive

Q: What about the mutagenic call (Species/Cell Type: Human lymphocytes, Assay Type: Sister-chromatid exchange (SCE) in vitro, Assay Code: SCL+) of the same molecule?
A: active; positive

Q: What about the mutagenic call (Species/Cell Type: Human, Assay Type: Sister-chromatid exchange (SCE) in vitro, Assay Code: SC1+D, Dose Response: With dose response) of the same molecule?
A: active; positive

Q: What about the mutagenic call (Species/Cell Type: Mammalian germ cells, Sex: Male, Assay Type: Chromosome aberrations in vivo, Assay Code: CY9+) of the same molecule?
A: active; positive

Q: And the mutagenic call (Species/Cell Type: Mammalian oocytes or early embryo, Assay Type: Chromosome aberrations in vivo, Assay Code: CYO+D, Dose Response: With dose response)?
A: active; positive

Q: What about the mutagenic call (Species/Cell Type: Mammalian polychromatic erythrocytes, Assay Type: Micronucleus test, chromosome aberrations, Assay Code: MNT+) of the same molecule?
A: active; positive

Q: What about the mutagenic call (Species/Cell Type: Mouse germ cells, Sex: Male, Assay Type: Unscheduled DNA synthesis (UDS) in vivo, DNA effects, Assay Code: UDT+) of the same molecule?
A: active; positive

Q: And the mutagenic call (Species/Cell Type: Mouse lymphoma (L5178Y) cells, Assay Type: Forward gene mutation at the thymidine kinase (TK) locus, chromosome aberrations, Assay Code: L51+)?
A: active; positive

Q: What about the mutagenic call (Species/Cell Type: Mouse, Sex: Female, Assay Type: Spot test, gene mutation, Assay Code: MST+) of the same molecule?
A: active; positive

Q: What about the mutagenic call (Species/Cell Type: Mouse, Sex: Male, Assay Type: Heritable translocation test, chromosome aberrations, Assay Code: HTT+) of the same molecule?
A: active; positive

Q: And the mutagenic call (Species/Cell Type: Mouse, Sex: Male, Assay Type: Specific locus test, gene mutation, Assay Code: SLT+)?
A: active; positive

Q: And the mutagenic call (Species/Cell Type: Mouse, Sex: Male, Assay Type: Sperm morphology, Assay Code: SPI+)?
A: active; positive

Q: What about the mutagenic call (Species/Cell Type: Neurospora crassa, Assay Type: Forward gene mutation, Assay Code: NEF+) of the same molecule?
A: active; positive

Q: What about the call (Species/Cell Type: Nonhuman, Assay Type: In vivo carcinogenicity studies, Assay Code: CCG+) of the same molecule?
A: active; positive

Q: And the mutagenic call (Species/Cell Type: Nonhuman, Assay Type: Sister-chromatid exchange (SCE) in vitro, Assay Code: SC2+D, Dose Response: With dose response)?
A: active; positive

Q: What about the mutagenic call (Species/Cell Type: Nonhuman, Assay Type: Sister-chromatid exchange (SCE) in vivo, Assay Code: SC3+D, Dose Response: With dose response) of the same molecule?
A: active; positive

Q: What about the mutagenic call (Species/Cell Type: Rabbit, Sex: Male, Assay Type: Sperm morphology, Assay Code: SPRT) of the same molecule?
A: no conclusion

Q: What about the mutagenic call (Species/Cell Type: Rat primary hepatocytes, Assay Type: Unscheduled DNA synthesis (UDS) in vitro, DNA effects, Assay Code: UDP+) of the same molecule?
A: active; positive

Q: What about the mutagenic call (Species/Cell Type: Rodents, Sex: Male, Assay Type: Dominant lethal test, Assay Code: DLT+D, Dose Response: With dose response) of the same molecule?
A: active; positive

Q: And the mutagenic call (Species/Cell Type: Saccharomyces cerevisiae, Assay Type: Forward gene mutation, Assay Code: YEF+)?
A: active; positive

Q: What about the mutagenic call (Species/Cell Type: Saccharomyces cerevisiae, Assay Type: Mitotic recombination or gene conversion, Assay Code: YEC+) of the same molecule?
A: active; positive

Q: What about the mutagenic call (Species/Cell Type: Saccharomyces cerevisiae, Assay Type: Mitotic recombination or gene conversion, Assay Code: YEH+) of the same molecule?
A: active; positive

Q: And the mutagenic call (Species/Cell Type: Saccharomyces cerevisiae, Assay Type: Reverse gene mutation, Assay Code: YER+)?
A: active; positive

Q: And the mutagenic call (Species/Cell Type: Salmonella typhimurium (one or more of the five standard strains: TA98, TA100, TA1535, TA1537, and TA1538), Assay Type: Histidine reverse gene mutation, Ames assay, Assay Code: SAL+)?
A: active; positive

Q: What about the mutagenic call (Species/Cell Type: Salmonella typhimurium, Assay Type: Forward and reverse gene mutation, body fluid assay, Assay Code: BFU-) of the same molecule?
A: inactive; negative

Q: And the mutagenic call (Species/Cell Type: Schizosaccharomyces pombe, Assay Type: Forward gene mutation, Assay Code: YEY+)?
A: active; positive

Q: And the mutagenic call (Species/Cell Type: Schizosaccharomyces pombe, Assay Type: Reverse gene mutation, Assay Code: YEZ+)?
A: active; positive

Q: And the mutagenic call (Species/Cell Type: Syrian hamster embryo (SA7/SHE) cells, Assay Type: Cell transformation, viral enhanced, Assay Code: CT7+)?
A: active; positive

Q: What about the mutagenic call (Species/Cell Type: Syrian hamster embryo (SHE) cells, Assay Type: Cell transformation, focus assay, Assay Code: CTF+) of the same molecule?
A: active; positive

Q: What about the mutagenic call (Species/Cell Type: Vicia faba, Assay Type: Chromosome aberrations, Assay Code: VIC+D, Dose Response: With dose response) of the same molecule?
A: active; positive

Q: Which mutagenic call (Species/Cell Type: Saccharomyces cerevisiae, Assay Type: Mitotic recombination or gene conversion, Assay Code: YEC-) does the source give for `CC(C)N1C(=O)c2ccccc2NS1(=O)=O` here?
A: inactive; negative

Q: Which mutagenic call (Species/Cell Type: Nonhuman, Assay Type: Chromosome aberrations in vitro, Assay Code: CY&-) does the source give for `ClC(Cl)=C(c1ccc(Cl)cc1)c1ccccc1Cl` here?
A: inactive; negative

Q: `CCCCNC(=O)N(CCCC)c1nc(-c2ccccc2)cs1` was tested. Which mutagenic call (Species/Cell Type: Salmonella typhimurium, Assay Type: Forward and reverse gene mutation, host-mediated assay, Assay Code: HMA+) did it give?
A: active; positive

Q: Which mutagenic call (Species/Cell Type: Salmonella typhimurium (one or more of the five standard strains: TA98, TA100, TA1535, TA1537, and TA1538), Assay Type: Histidine reverse gene mutation, Ames assay, Assay Code: SALT) does the source give for `Cc1ccc(N2CCN(C)CC2)c2c(=O)c3ccc(Cl)cc3sc12` here?
A: no conclusion
